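Values below derive from 48-hour exposures of cells grown in 96-well plates, with endpoints linearly interpolated between the two concentrations bracketing the appropriate inhibition level. TGI: concentration producing complete growth inhibition.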 Where a SMILES comes first, the peptide text is derived from it. The star is where a group is joined. OSu = O=C1CCC(=O)N1O*
How the values were obtained:
Assay in all cases: growth of human tumour cells (NCI), 48 h
[1] = tested on: CAKI-1 renal
[2] = tested on: CCRF-CEM leukemia
[3] = tested on: HOP-92 NSCLC
[4] = tested on: K-562 leukemia
[5] = tested on: KM12 colon
[6] = tested on: MOLT-4 leukemia
[7] = tested on: OVCAR-3 ovarian
[8] = tested on: OVCAR-8 ovarian
[9] = tested on: RPMI-8226 leukemia
[10] = tested on: SF-295 CNS
[11] = tested on: SW-620 colon
[12] = tested on: UACC-62 melanoma
[13] = tested on: RXF 393 renal
[14] = tested on: DU-145 prostate

Row | Compound | TGI [1] | TGI [2] | TGI [3] | TGI [4] | TGI [5] | TGI [6] | TGI [7] | TGI [8] | TGI [9] | TGI [10] | TGI [11] | TGI [12] | TGI [13] | TGI [14]
1 | O=C(Nc1c(O)[nH]c(=S)[nH]c1=O)c1ccccc1 | > 100 µM | > 100 µM | > 100 µM | > 100 µM | > 100 µM | > 100 µM | > 100 µM | > 100 µM | > 100 µM | > 100 µM | > 100 µM | > 100 µM | – | –
2 | O=c1[nH]c2cc(Cl)ccc2nc1/C(=N\Nc1ccccc1)C(O)c1ccc(Cl)c(Cl)c1 (stereo not drawn) | – | > 100 µM | > 100 µM | > 100 µM | > 100 µM | > 100 µM | > 100 µM | > 100 µM | > 100 µM | > 100 µM | > 100 µM | > 100 µM | > 100 µM | –
3 | Cc1cn(C2OC(CO[Si](C)(C)C(C)(C)C)C(N(C)O[Si](C)(C)C(C)(C)C)C2[Se]c2ccccc2)c(=O)[nH]c1=O (stereo not drawn) | – | > 100 µM | 10.9 µM | > 100 µM | 16.2 µM | > 100 µM | 19.9 µM | 24.6 µM | > 100 µM | 26 µM | > 100 µM | 42.4 µM | – | 79 µM
4 | COc1ccc(NC(=S)c2ccc(CN3CCCCC3)s2)cc1 | 77.3 µM | 34.5 µM | – | 42.1 µM | 35.7 µM | 61.9 µM | > 100 µM | 45.4 µM | 74.7 µM | 38.1 µM | 42.4 µM | 32.8 µM | – | > 100 µM
5 | CCOC(=O)C12OC(OCC)(CC1(OCC)OCC)C1(CC1)C2=O (stereo not drawn) | > 100 µM | > 100 µM | > 100 µM | > 100 µM | > 100 µM | > 100 µM | > 100 µM | > 100 µM | – | > 100 µM | > 100 µM | – | – | > 100 µM
6 | NCCCCC(NC(=O)C(N)Cc1ccc(O)cc1)C(=O)NC(CCCCN)C(=O)NC(CCCCN)C(=O)ON1C(=O)CCC1=O (stereo not drawn) (H-YKKK-OSu; configuration not given here) | – | – | > 100 µM | > 100 µM | > 100 µM | > 100 µM | – | > 100 µM | > 100 µM | – | > 100 µM | > 100 µM | > 100 µM | –
7 | Cc1nn(C(=O)Cc2ccccc2)c2c1C(c1ccccc1)SC(N)=N2 (stereo not drawn) | > 100 µM | > 100 µM | – | > 100 µM | > 100 µM | > 100 µM | – | > 100 µM | > 100 µM | > 100 µM | > 100 µM | > 100 µM | – | > 100 µM
8 | O=C(O)Cc1ccc([N+](=O)[O-])cc1[N+](=O)[O-] | > 100 µM | > 100 µM | – | > 100 µM | > 100 µM | > 100 µM | > 100 µM | > 100 µM | > 100 µM | > 100 µM | > 100 µM | > 100 µM | > 100 µM | > 100 µM
9 | CC1(C)[C@@H](Cn2cc(I)c(=O)[nH]c2=O)CC[C@@]1(C)CO | > 100 µM | > 100 µM | > 100 µM | > 100 µM | > 100 µM | – | > 100 µM | – | – | > 100 µM | > 100 µM | > 100 µM | > 100 µM | > 100 µM

Reference: PubChem BioAssay (NCI)
